In brackets after ≈: the same amount, converted by molar mass. Like-named read-outs stand apart in the source and are kept apart here.
What was measured:
[1] = Solubility in PBS; type: physicochemical
Procedure, shortened: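 The PBS solution was ultracentrifuged and the supernatant analyzed by HPLC. Its peak area was divided by that of a 50 μM peptide DMSO reference injection and multiplied by 50 uM to give solubility.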

[2] = molecular target: T1, full-length beta-Catenin (Uniprot ID P35222) (Homo sapiens, UniProt P35222); test: Fluorescence polarization IC50 (beta-catenin / 5FAM-TCF4 10-53 competition); type: binding
T1 construct: 10 nM full-length beta-Catenin (Uniprot ID P35222)
T1 sequence (P35222 1-781): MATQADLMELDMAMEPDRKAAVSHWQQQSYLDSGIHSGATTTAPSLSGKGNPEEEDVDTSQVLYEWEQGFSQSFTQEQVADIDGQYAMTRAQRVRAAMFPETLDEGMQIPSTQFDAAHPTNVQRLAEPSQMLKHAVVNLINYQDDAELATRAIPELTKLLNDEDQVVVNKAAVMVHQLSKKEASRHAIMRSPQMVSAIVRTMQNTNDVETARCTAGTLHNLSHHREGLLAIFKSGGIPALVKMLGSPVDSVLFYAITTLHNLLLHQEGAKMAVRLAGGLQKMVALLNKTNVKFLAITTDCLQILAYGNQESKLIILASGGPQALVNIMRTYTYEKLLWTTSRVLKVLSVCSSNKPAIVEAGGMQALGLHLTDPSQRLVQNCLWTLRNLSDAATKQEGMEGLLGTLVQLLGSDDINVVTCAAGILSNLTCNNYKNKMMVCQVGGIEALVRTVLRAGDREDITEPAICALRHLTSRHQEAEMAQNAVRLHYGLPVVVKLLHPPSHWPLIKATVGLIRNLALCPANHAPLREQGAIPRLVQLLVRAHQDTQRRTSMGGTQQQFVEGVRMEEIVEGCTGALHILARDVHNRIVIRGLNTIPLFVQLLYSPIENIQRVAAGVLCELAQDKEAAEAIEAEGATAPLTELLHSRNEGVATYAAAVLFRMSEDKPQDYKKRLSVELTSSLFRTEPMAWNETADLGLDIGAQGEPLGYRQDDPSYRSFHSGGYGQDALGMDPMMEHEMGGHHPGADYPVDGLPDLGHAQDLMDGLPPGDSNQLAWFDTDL

[3] = CHI Log D procedure; type: physicochemical; conditions: for CHI Log D: pH 7.4; for chromatographic logD: pH 7.4, CHI Log D
[4] = fluorescence polarization, read-out: beta-Catenin FP IC50

SMILES | Solubility [1] | IC50 [2, 4] | IC50 ([2]; read-out: FP EC50) | CHI Log D [3] | Solubility ([1]; Solubility (uM)) | IC50 ([2]; Table E2-1, read-out: beta-Catenin FP IC50) | chromatographic logD [3]
CCC[C@@H]1NC(=O)[C@H](CC(=O)O)NC(=O)[C@]2(CC=CCCCC3(CCCC=CCCCCCC[C@@](C)(C(=O)N[C@@H](Cc4ccccc4)C(=O)N[C@@H](Cc4csc5ccccc45)C(=O)N[C@@H](CCC(N)=O)C(N)=O)NC(=O)[C@H](CCC(N)=O)NC(=O)[C@H](Cc4ccccc4)NC(=O)[C@H](C)NC(=O)[C@H](C)NC(=O)[C@H](CCC(=O)O)NC(=O)[C@H](CC(=O)O)NC3=O)NC1=O)CCCN2C(C)=O (stereo partly drawn) [I-523, Ac-PL3-Asp-Nva-B5-Asp-Glu-Ala-Ala-Phe-Gln-S8-Phe-BztA-Gln-NH2] | 50 µM (≈ 93.5 µg/mL) | 44 nM | 44 nM | 2.241 |  |  | 
CC(=O)N1CCC[C@]12CC=CCCCC1(CCCC=CCCCCCC[C@@](C)(C(=O)N[C@@H](Cc3ccc(O)cc3)C(=O)N[C@@H](Cc3csc4ccccc34)C(=O)N[C@@H](CCC(N)=O)C(N)=O)NC(=O)[C@H](C(C)C)NC(=O)[C@H](Cc3ccccc3)NC(=O)[C@H](C)NC(=O)[C@H](C)NC(=O)[C@H](CC(=O)O)NC(=O)[C@H](CC(=O)O)NC1=O)NC(=O)[C@H](C)NC(=O)[C@H](CC(=O)O)NC2=O (stereo partly drawn) [I-341, Ac-PL3-Asp-Ala-B5-Asp-Asp-Ala-Ala-Phe-Val-S8-Tyr-BztA-Gln-NH2] |  |  |  |  | 38 µM (≈ 68.9 µg/mL) | 2000 nM | 1.73
CC[C@H](C)[C@@H]1NC(=O)[C@H](CC(=O)O)NC(=O)[C@]2(CC=CCCCC3(CCCC=CCCCCCC[C@@](C)(C(=O)N[C@@H](Cc4ccsc4)C(=O)N[C@@H](Cc4csc5ccccc45)C(=O)N[C@@H](CCC(N)=O)C(N)=O)NC(=O)[C@H](CC(N)=O)NC(=O)[C@H](Cc4ccccc4)NC(=O)[C@H](C)NC(=O)[C@H](C)NC(=O)[C@H](CC(=O)O)NC(=O)[C@H](CC(=O)O)NC3=O)NC1=O)CCCN2C(C)=O (stereo partly drawn) [I-551, Ac-PL3-Asp-Ile-B5-Asp-Asp-Ala-Ala-Phe-Asn-S8-3Thi-BztA-Gln-NH2] | 50 µM (≈ 93.1 µg/mL) | 45 nM | 45 nM | 2.278 |  |  | 
CC(=O)N1CCC[C@]12CC=CCCCC1(CCCC=CCCCCCC[C@@](C)(C(=O)N[C@@H](Cc3cccc(F)c3)C(=O)N[C@@H](Cc3c[nH]c4ccccc34)C(=O)N[C@@H](CCC(N)=O)C(N)=O)NC(=O)[C@H](CCC(N)=O)NC(=O)[C@H](Cc3ccsc3)NC(=O)[C@H](C)NC(=O)[C@H](C)NC(=O)[C@H](CCC(=O)O)NC(=O)[C@H](CC(=O)O)NC1=O)NC(=O)[C@H](C)NC(=O)[C@H](CC(=O)O)NC2=O (stereo partly drawn) [I-452, Ac-PL3-Asp-Ala-B5-Asp-Glu-Ala-Ala-3Thi-Gln-S8-3FF-Trp-Gln-NH2] | 50 µM (≈ 92.4 µg/mL) | 1660 nM | 1660 nM | 1.917 |  |  | 
CC(=O)N1CCC[C@]12CC=CCCCC1(CCCC=CCCCCCC[C@@](C)(C(=O)N[C@@H](Cc3ccccc3)C(=O)N[C@@H](Cc3csc4ccccc34)C(=O)N[C@@H](CCC(N)=O)C(N)=O)NC(=O)[C@H](CCC(N)=O)NC(=O)[C@H](Cc3cccs3)NC(=O)[C@H](C)NC(=O)[C@H](C)NC(=O)[C@H](CCC(=O)O)NC(=O)[C@H](CC(=O)O)NC1=O)NC(=O)[C@H](C)NC(=O)[C@H](CC(=O)O)NC2=O (stereo partly drawn) [I-486, Ac-PL3-Asp-Ala-B5-Asp-Glu-Ala-Ala-2Thi-Gln-S8-Phe-BztA-Gln-NH2] | 50 µM (≈ 92.4 µg/mL) | 147 nM | 147 nM | 1.97 |  |  | 
CC[C@H](C)[C@@H]1NC(=O)[C@H](CC(=O)O)NC(=O)[C@]2(CC=CCCCC3(CCCC=CCCCCCC[C@@](C)(C(=O)N[C@@H](Cc4ccccc4)C(=O)N[C@@H](Cc4csc5ccccc45)C(=O)N[C@@H](Cc4ccccc4)C(N)=O)NC(=O)[C@H](CCC(N)=O)NC(=O)[C@H](Cc4ccccc4)NC(=O)[C@H](C)NC(=O)[C@H](C)NC(=O)[C@H](CCC(=O)O)NC(=O)[C@H](CC(=O)O)NC3=O)NC1=O)CCCN2C(C)=O (stereo partly drawn) [I-635, Ac-PL3-Asp-Ile-B5-Asp-Glu-Ala-Ala-Phe-Gln-S8-Phe-BztA-Phe-NH2] |  | 171 nM |  |  | 43 µM (≈ 81.8 µg/mL) |  | 2.73

From patent publication US20240116985A1, “STAPLED PEPTIDES AND METHODS THEREOF” (priority 2020, published 2024)
